Laboratory results taken from patent publication US20140065615A1, “The KRAS Variant and Tumor Biology” (YALE UNIVERSITY, priority 2011, published 2014).

Columns and labels:
Type in all cases: cell-based
[1] = system: BG1 (KRAS variant/BRCA wild-type cell line); test: CellTiter-Blue chemosensitivity / cell viability assay, BG1; details: KRAS-variant line BG1 vs non-variant CAOV3
Protocol: (§1) The activity of drugs alone or in combination was determined by a high-through-put CellTiter-Blue cell viability assay. For these assays, 1.2×10^3 cells were plated in each well of 384-well plates using a Precision XS liquid handling station (Bio-Tek Instruments Inc., Winooski, Vt., USA) and allowed to attach overnight with incubation at 37° C., 5% CO2. Using the liquid handling station, all drugs were serially diluted 2:3 or 1:2 in media, and 5 μl of these dilutions were added to appropriate wells at indicated times. Four replicate wells were used for each drug concentration and an additional four control wells received a diluent control without drug. At the end of the incubation period with drugs, 5 μl CellTiter-Blue reagent (Promega Corp., Madison, Wis., USA) was added to each well. Cell viability was assessed by the ability of the remaining viable cells to bioreduce resazurin to resorufin. The fluorescence of resorufin (579 nm Ex/584 nm Em) was measured using a Synergy 4 microplate reader (Bio-Tek Instruments Inc.). […] IC50s were determined using a sigmoidal equilibrium model regression using XLfit version 5.2 (ID Business Solutions Ltd). The IC50 was defined as the concentration Of drug required for a 50% reduction in growth/viability. All experiments were carried out a minimum of three times.
For example, a cell line that is KRAS variant positive/BRCA wild-type (BG1), a non-variant/BRCA wild-type cell line (CAOV3) and a cell line KRAS-variant positive/BRCA1 mutant (IGR-OV1) were tested.

[2] = system: IGR-OV1 (KRAS-variant/BRCA1 mutant cell line); test: CellTiter-Blue chemosensitivity / cell viability assay, IGR-OV1; details: KRAS variant and deleterious BRCA1 mutation line vs CAOV3
Protocol: as §1, with “three times. […]” for “three times.”

[3] = system: wild-type 3′UTR reporter (KRAS); test: Luciferase reporter expression after irinotecan exposure, wild-type 3′UTR reporter
Text: (§2) The disclosure provides a method of predicting the response of a cancer cell to the combination of a chemotherapy and monoclonal antibody therapy, including detecting a mutation in let-7 complementary site LCS6 of human KRAS in a patient sample, wherein the mutation is a SNP comprising a uracil (U) or thymine (T) to guanine (G) transition at position 4 of LCS6, and wherein the presence of the mutation indicates a resistance to the combination. In certain embodiments of this method, the cancer cell is a colorectal cancer (CRC) cell. The cancer cell may be evaluated in vitro or ex vivo. […] The chemotherapy may be a cytotoxic agent. A non-limiting example of the cytotoxic agent is irinotecan.

[4] = system: KRAS-variant 3′UTR reporter; test: Luciferase reporter expression after irinotecan exposure, KRAS-variant 3′UTR reporter
Text: as §2

## COc1cccc2c1C(=O)c1c(O)c3c(c(O)c1C2=O)C[C@@](O)(C(=O)CO)C[C@@H]3O[C@H]1C[C@H](N)[C@H](O)[C@H](C)O1 [Doxorubicin, doxorubicin]
[1]
  resistance of BG1 compared with CAOV3: significantly resistant

## Nc1ccn([C@@H]2O[C@H](CO)[C@@H](O)C2(F)F)c(=O)n1 [Gemcitabine, gemcitabine]
[1]
  resistance of BG1 compared with CAOV3: significantly resistant

## CC[C@@]1(O)C(=O)OCc2c1cc1n(c2=O)Cc2cc3c(CN(C)C)c(O)ccc3nc2-1 [Topotecan, topotecan]
[1]
  resistance of BG1 compared with CAOV3: significantly resistant

## N.N.O=C([O-])C1(C(=O)[O-])CCC1.[Pt+2] [carboplatin]
[2]
  resistance of IGROV1 compared with CAOV3: not resistant
[1]
  resistance of BG1 compared with CAOV3: statistically significantly resistant

## CCc1c2c(nc3ccc(OC(=O)N4CCC(N5CCCCC5)CC4)cc13)-c1cc3c(c(=O)n1C2)COC(=O)[C@]3(O)CC [irinotecan]
[3]
  reporter expression following irinotecan exposure: no change
[4]
  reporter expression following irinotecan exposure: statistically-significant increase
